pIC50: −log10 of the molar value.

This assay addresses T1, GID4 (Uniprot ID: Q81VV7, residues 124-289) (Homo sapiens, UniProt Q8IVV7).
T1 construct: GID4 (Uniprot ID: Q81VV7, residues 124-289)
T1 sequence (Q8IVV7 124-289): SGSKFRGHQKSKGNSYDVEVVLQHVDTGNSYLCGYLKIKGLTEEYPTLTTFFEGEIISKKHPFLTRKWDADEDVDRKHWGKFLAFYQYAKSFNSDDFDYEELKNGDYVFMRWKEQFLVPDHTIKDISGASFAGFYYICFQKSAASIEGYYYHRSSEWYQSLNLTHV
The experiment in a line: GID4 competitive binding assay (AlphaScreen, GID4/degron peptide PGLW). The note with it: 24 nM GID4, 48 nM biotinylated degron peptide PGLW, 4° C., read-out: IC50 (Inhibition of GID4/Degron binding by test compounds). The essentials:
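His-tagged human GID4 (residues 124-289, 24 nM) pre-incubated 2 h at 4 °C with 48 nM biotinylated PGLW peptide and compound in HEPES pH 7.5 buffer, 2% DMSO (final). AlphaScreen streptavidin donor/Ni-NTA acceptor beads added for 1 h; IC50 from nonlinear fit of % inhibition versus DMSO.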
(Alpha assays give light when donor and acceptor beads are brought close together.)
For `Nc1nccc2ccc(-c3ccc4[nH]ncc4c3)cc12` [Compound 361, 7-(1H-indazol-5-yl)isoquinolin-1-amine], the pIC50 is greater than 6.30.

On to `Nc1nccc2ccc(-c3ccc4[nH]cnc4c3)cc12` [Compound 362, 7-(1H-benzo[d]imidazol-5-yl)isoquinolin-1-amine], for which the pIC50 is 5.30 to 6.30. With `CC1CNCCN1c1cc(-c2ccnn2C)c2ccnc(-c3ccn[nH]3)c2n1` (stereo not drawn) [Compound 363, 4-(1-methyl-1H-pyrazol-5-yl)-2-(2-methylpiperazin-1-yl)-8-(1H-pyrazol-5-yl)-1,7-naphthyridine] the figure was less than 5.30; with `Cn1nccc1-c1cc(N2CC3CCC(C2)N3)nc2c(-c3cc[nH]n3)nccc12` [Compound 364, 2-(3,8-diazabicyclo[3.2.1]octan-3-yl)-4-(1-methyl-1H-pyrazol-5-yl)-8-(1H-pyrazol-3-yl)-1,7-naphthyridine], less than 5.30. For `Cn1nccc1-c1cc(N2CC3CC(C2)N3)nc2c(-c3cc[nH]n3)nccc12` [Compound 365, 3-(4-(1-methyl-1H-pyrazol-5-yl)-8-(1H-pyrazol-3-yl)-1,7-naphthyridin-2-yl)-3,6-diazabicyclo[3.1.1]heptane] the value was 5.30 to 6.30; for `CC(C)c1cc(-c2cc(-c3ccnn3C)c3ccnc(-c4cc[nH]n4)c3n2)cc(N)n1` [Compound 366, 6-isopropyl-4-(4-(1-methyl-1H-pyrazol-5-yl)-8-(1H-pyrazol-3-yl)-1,7-naphthyridin-2-yl)pyridin-2-amine], 5.30 to 6.30; for `CC(C)c1cc(-c2cc(-c3ccnn3C)c3cccc(-c4cc[nH]n4)c3n2)cc(N)n1` [Compound 367, 6-isopropyl-4-(4-(1-methyl-1H-pyrazol-5-yl)-8-(1H-pyrazol-3-yl)quinolin-2-yl)pyridin-2-amine], 5.30 to 6.30. As for `CC(C)c1cc(N2CCCC(c3cnc4ccccn34)C2)c2cc[nH]c2n1` (stereo not drawn) [Compound 370, 3-(1-(6-isopropyl-1H-pyrrolo[2,3-b]pyridin-4-yl)piperidin-3-yl)imidazo[1,2-a]pyridine], the pIC50 was greater than 6.30. With `CC(C)c1nc(N2CCNC(c3cnc4ccccn34)C2)c2nc[nH]c2n1` (stereo not drawn) [Compound 373, 6-(3-(imidazo[1,2-a]pyridin-3-yl)piperazin-1-yl)-2-isopropyl-9H-purine] the figure was greater than 6.30; with `CC(C)c1nc(N2CCCC(c3cnc4ccccn34)C2)c2cc[nH]c2n1` (stereo not drawn) [Compound 374, 4-(3-(imidazo[1,2-a]pyridin-3-yl)piperidin-1-yl)-2-isopropyl-7H-pyrrolo[2,3-d]pyrimidine], greater than 6.30; with `CC(C)c1nc(N2CCNC(c3cnc4ccccn34)C2)c2cc[nH]c2n1` (stereo not drawn) [Compound 375, 4-(3-(imidazo[1,2-a]pyridin-3-yl)piperazin-1-yl)-2-isopropyl-7H-pyrrolo[2,3-d]pyrimidine], greater than 6.30. With `CC(C)c1nc(N2CCCC(c3cnc4ccccn34)C2)c2nc[nH]c2n1` (stereo not drawn) [Compound 376, 6-(3-(imidazo[1,2-a]pyridin-3-yl)piperidin-1-yl)-2-isopropyl-9H-purine], the pIC50 was greater than 6.30.
